The CheMixHub viscosity set
± gives the uncertainty stated by the source.

Experiment: xn = mol fraction of the nth substance listed

C=C(C)C(=O)OCCCCCCC + C1CCCCC1
viscosity [mPa·s], 101 kPa
Conditions | x1 = 0.002 | x1 = 0.005 | x1 = 0.01 | x1 = 0.02
303 K | 0.8392 ± 0.0085 | 0.8401 ± 0.0085 | 0.8252 ± 0.0082 | 0.8456 ± 0.0087
313 K | 0.6991 ± 0.0056 | 0.7083 ± 0.0057 | 0.7012 ± 0.0055 | 0.7219 ± 0.006
323 K | 0.6114 ± 0.004 | 0.6127 ± 0.004 | 0.6159 ± 0.004 | 0.6244 ± 0.0043

CCCCCCCCCCCCCCCCCC(=O)OC + C1CCCCC1
viscosity [mPa·s], 101 kPa
Conditions | x1 = 0.05 | x1 = 0.1 | x1 = 0.15 | x1 = 0.2 | x1 = 0.25 | x1 = 0.3
298 K | 1.22 ± 0.03 | 1.46 ± 0.03 | 1.73 ± 0.04 | 2.03 ± 0.04 | 2.33 ± 0.05 | –
303 K | 1.14 ± 0.02 | 1.35 ± 0.03 | 1.58 ± 0.03 | 1.86 ± 0.04 | 2.12 ± 0.04 | 2.45 ± 0.05
308 K | 1.06 ± 0.02 | 1.25 ± 0.03 | 1.46 ± 0.03 | 1.71 ± 0.04 | 1.95 ± 0.04 | 2.2 ± 0.05
313 K | 0.99 ± 0.02 | 1.16 ± 0.02 | 1.34 ± 0.03 | 1.58 ± 0.03 | 1.78 ± 0.04 | 2.02 ± 0.04

CCCCCCCCCCCCO + C1CCCCC1
303.15 K, 101.33 kPa
Conditions | viscosity [mPa·s]
x1 = 0.0858 | 1.109 ± 0.014
x1 = 0.1621 | 1.502 ± 0.018
x1 = 0.305 | 2.569 ± 0.029
x1 = 0.405 | 3.522 ± 0.04
x1 = 0.506 | 4.63 ± 0.051
x1 = 0.5985 | 5.781 ± 0.062
x1 = 0.6982 | 7.191 ± 0.074
x1 = 0.7746 | 8.412 ± 0.084
x1 = 0.862 | 9.989 ± 0.098

CCCCCCCCN + C1CCCCC1
303.15 K, 101 kPa
Conditions | viscosity [mPa·s]
x2 = 0.0971 | 1.138 ± 0.023
x2 = 0.1959 | 1.096 ± 0.022
x2 = 0.2997 | 1.036 ± 0.021
x2 = 0.401 | 0.97 ± 0.02
x2 = 0.497 | 0.952 ± 0.019
x2 = 0.5993 | 0.913 ± 0.018
x2 = 0.6975 | 0.863 ± 0.017
x2 = 0.7993 | 0.82 ± 0.017
x2 = 0.896 | 0.81 ± 0.016

Cc1ccc(C)cc1 + C1CCCCC1
101 kPa
Conditions | viscosity [mPa·s]
303 K, x1 = 0.1025 | 0.7341 ± 0.0052
303 K, x1 = 0.2016 | 0.6783 ± 0.0049
303 K, x1 = 0.2982 | 0.6363 ± 0.0047
303 K, x1 = 0.402 | 0.6131 ± 0.0046
303 K, x1 = 0.4944 | 0.5946 ± 0.0046
303 K, x1 = 0.5992 | 0.5858 ± 0.0046
303 K, x1 = 0.7997 | 0.5735 ± 0.0047
303 K, x1 = 0.8951 | 0.5721 ± 0.0047
303.15 K, x2 = 0.1016 | 0.5673 ± 0.0041
303.15 K, x2 = 0.1997 | 0.572 ± 0.0041
303.15 K, x2 = 0.2851 | 0.5782 ± 0.0041
303.15 K, x2 = 0.3934 | 0.591 ± 0.0042
303.15 K, x2 = 0.4966 | 0.611 ± 0.0042
303.15 K, x2 = 0.5961 | 0.6362 ± 0.0044
303.15 K, x2 = 0.6976 | 0.6682 ± 0.0045
303.15 K, x2 = 0.7954 | 0.7086 ± 0.0047
303.15 K, x2 = 0.8986 | 0.763 ± 0.0049
313 K, x1 = 0.1025 | 0.6343 ± 0.0046
313 K, x1 = 0.2016 | 0.5965 ± 0.0044
313 K, x1 = 0.2982 | 0.5693 ± 0.0043
313 K, x1 = 0.402 | 0.5417 ± 0.0042
313 K, x1 = 0.4944 | 0.5288 ± 0.0041
313 K, x1 = 0.5992 | 0.5165 ± 0.0041
313 K, x1 = 0.6952 | 0.5142 ± 0.0042
313 K, x1 = 0.7997 | 0.5159 ± 0.0043
323 K, x1 = 0.1025 | 0.54 ± 0.004
323 K, x1 = 0.2016 | 0.5237 ± 0.0039
323 K, x1 = 0.2982 | 0.4976 ± 0.0038
323 K, x1 = 0.402 | 0.4831 ± 0.0038
323 K, x1 = 0.4944 | 0.4765 ± 0.0038
323 K, x1 = 0.6952 | 0.462 ± 0.0038
323 K, x1 = 0.7997 | 0.4612 ± 0.0039
323 K, x1 = 0.8951 | 0.4608 ± 0.0039

Cc1ccc(C)cc1 + C1CCOC1
303.15 K, 101.33 kPa
Conditions | viscosity [mPa·s]
x2 = 0.1057 | 0.564 ± 0.005
x2 = 0.2037 | 0.557 ± 0.005
x2 = 0.2809 | 0.552 ± 0.005
x2 = 0.4052 | 0.544 ± 0.005
x2 = 0.5256 | 0.53 ± 0.005
x2 = 0.6045 | 0.518 ± 0.005
x2 = 0.7062 | 0.501 ± 0.005
x2 = 0.8021 | 0.485 ± 0.005
x2 = 0.9001 | 0.462 ± 0.004

[Cl-].[Cl-].[Cl-].[Cl-].[Ge+4] + C1COCCO1
viscosity [mPa·s], 101 kPa
Conditions | x2 = 0.1519 | x2 = 0.3148 | x2 = 0.5071 | x2 = 0.6631 | x2 = 0.8814 | x2 = 0.9218
298.15 K | 0.626 ± 0.016 | 0.67 ± 0.017 | 0.745 ± 0.019 | 0.837 ± 0.021 | 0.978 ± 0.025 | 1.087 ± 0.027
313.15 K | 0.539 ± 0.014 | 0.57 ± 0.014 | 0.627 ± 0.016 | 0.687 ± 0.017 | 0.784 ± 0.02 | 0.856 ± 0.022

CCCCCCCCCCCCO + C=CC(=O)OC
viscosity [mPa·s], 101.3 kPa
Conditions | x2 = 0.1127 | x2 = 0.3078 | x2 = 0.3842 | x2 = 0.5147 | x2 = 0.6206 | x2 = 0.7884 | x2 = 0.8506 | x2 = 0.9093 | x2 = 0.9554 | x2 = 0.9794
298.15 K | 11.57 ± 0.42 | 5.722 ± 0.24 | 4.4 ± 0.19 | 2.703 ± 0.12 | 1.891 ± 0.088 | 0.992 ± 0.049 | 0.785 ± 0.04 | 0.629 ± 0.034 | 0.53 ± 0.029 | 0.484 ± 0.027
308.15 K | 8.309 ± 0.32 | 4.391 ± 0.19 | 3.385 ± 0.15 | 2.157 ± 0.099 | 1.515 ± 0.072 | 0.833 ± 0.042 | 0.668 ± 0.035 | 0.549 ± 0.03 | 0.473 ± 0.027 | 0.438 ± 0.025

CCCCCCCCCCCCO + C=CC(=O)OCC
viscosity [mPa·s], 101.3 kPa
Conditions | x2 = 0.0932 | x2 = 0.2669 | x2 = 0.3351 | x2 = 0.4687 | x2 = 0.5769 | x2 = 0.7542 | x2 = 0.8231 | x2 = 0.8907 | x2 = 0.9643 | x2 = 0.9743
298.15 K | 11.28 ± 0.82 | 6.404 ± 0.52 | 5.497 ± 0.47 | 3.183 ± 0.28 | 2.253 ± 0.21 | 1.192 ± 0.12 | 0.963 ± 0.096 | 0.74 ± 0.076 | 0.584 ± 0.063 | 0.565 ± 0.061
308.15 K | 10.08 ± 0.75 | 4.772 ± 0.42 | 4.182 ± 0.37 | 2.515 ± 0.23 | 1.748 ± 0.16 | 0.997 ± 0.099 | 0.792 ± 0.081 | 0.633 ± 0.067 | 0.512 ± 0.057 | 0.497 ± 0.055

CCCCCCCCCCCCO + C=CC(=O)OCCCC
viscosity [mPa·s], 101.3 kPa
Conditions | x2 = 0.075 | x2 = 0.2149 | x2 = 0.2782 | x2 = 0.3968 | x2 = 0.5042 | x2 = 0.7015 | x2 = 0.7849 | x2 = 0.8614 | x2 = 0.9327 | x2 = 0.9651
298.15 K | 12.42 ± 0.9 | 7.842 ± 0.61 | 6.982 ± 0.56 | 4.373 ± 0.38 | 3.244 ± 0.29 | 1.769 ± 0.17 | 1.376 ± 0.13 | 1.197 ± 0.12 | 0.983 ± 0.097 | 0.858 ± 0.087
308.15 K | 8.748 ± 0.67 | 5.789 ± 0.48 | 4.807 ± 0.42 | 3.38 ± 0.3 | 2.459 ± 0.22 | 1.409 ± 0.13 | 1.135 ± 0.11 | 1.004 ± 0.099 | 0.86 ± 0.087 | 0.732 ± 0.076

COC(=O)OCC(F)(F)F + CC1COC(=O)O1
298.15 K, 100 kPa
Conditions | viscosity [mPa·s]
x2 = 0.0999 | 1.13 ± 0.024
x2 = 0.2012 | 1.26 ± 0.027
x2 = 0.3 | 1.38 ± 0.03
x2 = 0.3991 | 1.51 ± 0.033
x2 = 0.5012 | 1.66 ± 0.036
x2 = 0.6016 | 1.82 ± 0.039
x2 = 0.699 | 2 ± 0.043
x2 = 0.7994 | 2.18 ± 0.047
x2 = 0.9002 | 2.36 ± 0.051

Cc1ccc(C)cc1 + CC#N
308.15 K, 101 kPa
Conditions | viscosity [mPa·s]
x1 = 0.1008 | 0.3403 ± 0.0081
x1 = 0.2001 | 0.3636 ± 0.0085
x1 = 0.2981 | 0.3915 ± 0.009
x1 = 0.3964 | 0.4147 ± 0.0094
x1 = 0.4985 | 0.4387 ± 0.0098
x1 = 0.5923 | 0.4603 ± 0.01
x1 = 0.6937 | 0.4799 ± 0.011
x1 = 0.7907 | 0.4989 ± 0.011
x1 = 0.9051 | 0.5199 ± 0.011

CC(=O)OCC[N+](C)(C)C.[Cl-] + CC(=O)CCC(=O)O
101 kPa, x2 = 0.75
Conditions | viscosity [mPa·s]
293.15 K | 164.5 ± 7.5
303.15 K | 85.88 ± 3.7
313.15 K | 46.75 ± 2
323.15 K | 31.58 ± 1.3

c1ccc(Nc2ccccc2)cc1 + CC(=O)O
323.15 K, 101.33 kPa
Conditions | viscosity [mPa·s]
x1 = 0.1031 | 1.083 ± 0.0088
x1 = 0.2023 | 1.242 ± 0.01
x1 = 0.4039 | 2.267 ± 0.02
x1 = 0.5079 | 2.799 ± 0.026
x1 = 0.6113 | 3.35 ± 0.033
x1 = 0.6724 | 3.714 ± 0.037
x1 = 0.7895 | 4.486 ± 0.049

Fc1ccccc1 + CC(=O)OCCC(C)C
viscosity [mPa·s], 101 kPa
Conditions | x2 = 0.0669 | x2 = 0.1372 | x2 = 0.2148 | x2 = 0.2975 | x2 = 0.3897 | x2 = 0.4843 | x2 = 0.5939 | x2 = 0.713 | x2 = 0.8486
303.15 K | 0.541 ± 0.011 | 0.565 ± 0.011 | 0.591 ± 0.011 | 0.613 ± 0.011 | 0.637 ± 0.011 | 0.661 ± 0.011 | 0.682 ± 0.011 | 0.706 ± 0.011 | 0.727 ± 0.011
313.15 K | 0.48 ± 0.011 | 0.501 ± 0.011 | 0.524 ± 0.011 | 0.543 ± 0.011 | 0.561 ± 0.011 | 0.579 ± 0.011 | 0.597 ± 0.011 | 0.613 ± 0.011 | 0.629 ± 0.011
